Molecules are shown by their SMILES.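 In this assay, cells in 96-well plates receive the compound at five concentrations for 48 hours. Endpoints are linearly interpolated between the surrounding concentrations. GI50 marks 50% less growth. The concentration for full growth arrest is given as TGI.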

What all share (test): growth of human tumour cells (NCI), 48 h
For test [1], the system named is EKVX NSCLC.
Test [2] has as its system SF-295 CNS.
In test [3] the test system is NCI-H522 lung.
Test [4] relates to OVCAR-5 ovarian.
In test [5] the test system is SK-OV-3 ovarian.
For test [6], the system named is NCI/ADR-RES ovarian.
The test system of test [7] is IGROV1 ovarian.
Test [8] relates to OVCAR-3 ovarian.
For test [9], the system named is PC-3 prostate.
Test [10] deals with OVCAR-8 ovarian.

As for `O=c1cc(NCC(O)CN2CCCC2)n(Cc2ccccc2)c(=O)n1Cc1ccccc1` (centres undefined), the GI50 is greater than 100 µM in [1]; 46.6 µM in test [2]; 79.3 µM in test [3]; greater than 100 µM in [4]; greater than 100 µM in [5]; greater than 100 µM in test [6]. Also, the GI50 was 26.6 µM in [7], greater than 100 µM in [8], 26.9 µM in [9] and greater than 100 µM in test [10]. In addition, the TGI in [1], in test [2], in test [3], in test [4], in test [5] and in test [6] was greater than 100 µM throughout. The TGI in [7] is 95.4 µM; in test [8], greater than 100 µM; in test [9], 84.1 µM; in [10], greater than 100 µM.

For `COc1ccc(/C=C/c2c(C(=O)/C=C/c3ccccc3)c(C)nc3ccccc23)cc1`, the GI50 in test [1] was 1.77 µM; in test [2], 2.62 µM; in test [3], 1.72 µM; in test [4], 1.91 µM; in [5], 3.13 µM; in [6] it was 2.51 µM. Further, the GI50 in [7] is 1.57 µM; in test [8], 1.65 µM; in test [9], 1.66 µM; in test [10], 1.75 µM. Besides, the TGI in [1] is 3.56 µM; in [2] it was 7.46 µM; in [3], 4.83 µM; in test [4], 3.65 µM; in test [5], 9.54 µM; in test [6], 7.52 µM. Further, the TGI in test [7] is 5.36 µM; in test [8], 3.12 µM; in test [9], 3.81 µM; in test [10], 4.1 µM.

As for `COc1ccc(C2=C(Cl)c3cc(OC)c(OC)cc3C2Cl)cc1` (centres undefined), the TGI in test [1] was 66.5 µM; in [2] it was 34.1 µM; in [3], greater than 27.5 µM; in [4], 29.2 µM; in [5] it was 34.3 µM; in test [6] it was 33.3 µM. For the same molecule, the TGI in test [7] was found to be 35.7 µM; in test [8] it was 30.9 µM; in test [9], 26.3 µM; in test [10], 50.6 µM.

Consider `COCC[C@H]1CCC/C=C/[C@@H]2C[C@H](O)C[C@H]2[C@H](O)/C=C/C(=O)O1`, for which the GI50 was 0.114 µM in [1]; 0.0796 µM in test [2]; 0.21 µM in test [3]; 0.247 µM in test [4]; 0.0725 µM in test [5]; 0.0472 µM in [6]. The GI50 was 0.331 µM in [7], 0.0505 µM in test [8], 0.193 µM in test [9] and 0.0483 µM in test [10]. In addition, the TGI was greater than 100 µM in test [1]; greater than 100 µM in test [2]; 0.557 µM in test [3]; greater than 100 µM in test [4]; greater than 100 µM in test [5]; greater than 29 µM in test [7]. The results for the TGI in [8], in test [9] and in [10] were 0.273 µM, greater than 100 µM and greater than 100 µM, respectively.

Take `CCOC(=O)C1CCN(S(=O)(=O)/N=C2/NC(=O)NC2=C(Cl)Cl)CC1`: the GI50 in test [1] is 1.99 µM; in [2] it was 3.56 µM; in test [3] it was 2.22 µM; in test [4], 3.6 µM; in test [5] it was 9.94 µM; in test [6] it was 4.36 µM. Moreover, the GI50 in [7] is 1.91 µM; in test [8], 1.77 µM; in test [9], 0.621 µM; in [10] it was 3.76 µM. Moreover, the TGI is 4.79 µM in [1]; 14.1 µM in [2]; 4.28 µM in [3]; 14.7 µM in test [4]; 21.7 µM in test [5]; 41.4 µM in [6]. In addition, the TGI in [7] worked out at 3.93 µM; in test [8], 3.29 µM; in [9] it was 2.58 µM; in [10], 19.9 µM.

`O=C(Nc1n[nH]c2cc(-c3ccccc3)ccc12)C1CC1`: the GI50 in test [1] was 24.4 µM; in [2], 9.07 µM; in test [3], 1.29 µM; in test [4], greater than 25 µM; in [5] it was 14.2 µM; in [6], 1.79 µM. Besides, the GI50 in [7] was 19.6 µM; in [8] it was 5.34 µM; in [9] it was 10.5 µM; in test [10], 14.5 µM. For the same molecule, the TGI in [1], in [2], in test [3], in [4], in test [5] and in test [6] was greater than 25 µM each time. Further, the TGI in test [7] is greater than 25 µM; in test [8], 16.9 µM; in test [9] it was greater than 25 µM; in [10], greater than 25 µM.

`CC(=O)O[C@H]1CCC2[C@@H]3CC[C@]4(C)CC(=O)C=C[C@]4(C)C3CC[C@@]21C` (some centres undefined): the TGI is greater than 90.5 µM in [1]; greater than 100 µM in [2]; 76.9 µM in test [3]; greater than 100 µM in test [4]; greater than 100 µM in [5]; 40.5 µM in test [6]. Moreover, the TGI in test [7] came to 58.3 µM; in test [8], 31.6 µM; in test [9] it was 77.1 µM; in test [10] it was 34.2 µM.

In the case of `CCc1nc(N)nc(N)c1-c1ccc(NC)c([N+](=O)[O-])c1`, the TGI is greater than 100 µM in test [1]; greater than 94.7 µM in test [2]; greater than 57.2 µM in [3]; greater than 100 µM in test [4]; greater than 100 µM in test [5]; greater than 100 µM in test [6]. The TGI in test [7], in test [8], in [9] and in test [10] was greater than 100 µM each time.

These data come from PubChem BioAssay (NCI).
